Common to all, as to conditions: stereoisomer not certain
Series [1] in a line: RP, Waters ACQUITY UPLC BEH C18, 100 × 1 mm, 1.7 µm, 50 °C, 0.3 mL/min, estimated dead time 0.17 min; A: water + 10 mM ammonium bicarbonate; B: 10% water + 90% methanol + 10 mM ammonium bicarbonate; gradient (min/%B) 0/0 15/100 21/100 22/0 30/0.
Series [2] can be described thus: RP, Waters ACQUITY UPLC BEH C18, 100 × 1 mm, 1.7 µm, 50 °C, 0.3 mL/min, estimated dead time 0.17 min; A: water + 0.1% formic acid + 20 mM ammonium formate; B: methanol + 0.1% formic acid + 20 mM ammonium formate; gradient (min/%B) 0/0 15/100 21/100 22/0 30/0.
Series [3] in a line: RP, Phenomenex Synergi Polar-RP, 100 × 3 mm, 2.5 µm, 40 °C, 0.4 mL/min, estimated dead time 1.1 min; A: water + 1 mM ammonium fluoride; B: methanol + 1 mM ammonium fluoride; C: acetonitrile; D: 50% isopropanol + 50% acetone; gradient (min/%B/%C/%D) 0/5/0/0 2/5/0/0 8/95/0/0 12/80/15/0 19/25/70/0 19.5/0/25/70 21.5/0/25/70 22.5/0/25/0 23/5/0/0.

With `O=C1NS(=O)(=O)c2ccccc21` [Saccharin], the LC retention time in series [1] is 4.9 min; in series [2], 5.37 min; in series [3], 3.01 min.

`O=S(=O)(O)c1ccccc1` [Benzenesulfonic acid]: the LC retention time is 2.77 min in series [1], 2.96 min in series [2] and 2.01 min in series [3]. Taken in the same sequence, the figures for `CCCOC(=O)c1ccc(O)cc1` [Propylparaben] were 12.7 min, 12.9 min and 10.2 min. As to `O=S(=O)(O)C(F)(F)C(F)(F)C(F)(F)C(F)(F)C(F)(F)C(F)(F)C(F)(F)C(F)(F)F` [Perfluorooctanesulfonic acid], the LC retention time in series [1] was 15.5 min; in series [3], 9.25 min. With `COc1ccc2c(c1)c(CC(=O)O)c(C)n2C(=O)c1ccc(Cl)cc1` [Indometacin], the results for the LC retention time in series [2] and in series [3] were 15.4 min and 10.5 min, respectively.

For the molecule `N#Cc1nn(-c2c(Cl)cc(C(F)(F)F)cc2Cl)c(N)c1SC(F)(F)F` [Fipronil sulfide], the LC retention time is 15.8 min in series [1], 15.4 min in series [2] and 11 min in series [3]. Taken in the same sequence, the figures for `O=C(O)C(F)(F)C(F)(F)C(F)(F)F` [Perfluorobutanoic acid] were 7.16 min, 7.57 min and 2.91 min. With `O=C(O)C(F)(F)C(F)(F)C(F)(F)C(F)(F)C(F)(F)C(F)(F)C(F)(F)F` [Perfluorooctanoic acid], the results for the LC retention time in series [1], in series [2] and in series [3] were 14.8 min, 14.7 min and 8.97 min, respectively. For the molecule `Oc1ccc(Cl)cc1` [4-Chlorophenol], the LC retention time in series [1] is 11.3 min; in series [3] it was 8.39 min. As to `O=C(Nc1ccc(Cl)c(Cl)c1)c1cc(Cl)cc(Cl)c1O` [Tetrachlorosalicylanilide], the LC retention time was 14.9 min in series [1], 17.7 min in series [2] and 10.2 min in series [3]. The matching figures for `O=S(=O)(O)c1ccc2ccccc2c1` [2-Naphthalene sulfonic acid]: 8.6 min, 8.66 min and 7.25 min. For the molecule `CCCCCCCCCc1ccc(O)cc1` [4-n-Nonylphenol], the LC retention time was 18.1 min in series [1] and 11.6 min in series [3]. For the molecule `Oc1cccc2ccccc12` [1-Naphthol], the figures for the LC retention time in series [1], in series [2] and in series [3] were 12.7 min, 12.5 min and 10 min, respectively. In the case of `O=S(=O)(O)NC1CCCCC1` [Cyclamate], the results for the LC retention time in series [1], in series [2] and in series [3] were 6.33 min, 6.54 min and 2.74 min, respectively.

In the case of `CC(C)(O)c1ccccc1CCC(SCC1(CC(=O)O)CC1)c1cccc(C=Cc2ccc3ccc(Cl)cc3n2)c1` (stereo not drawn) [Montelukast], the LC retention time was 16.6 min in series [1] and 11.9 min in series [3]. In the case of `Oc1ccccc1-c1ccccc1` [2-Phenylphenol], the LC retention time was 13.9 min in series [1] and 9.93 min in series [3]. Taken in the same sequence, the figures for `CCCCOC(=O)c1ccc(O)cc1` [Butylparaben] were 14 min and 10.6 min. For `CCc1cccc(C)c1N(C(=O)CS(=O)(=O)O)C(C)COC` (stereo not drawn) [Metolachlor ESA], the LC retention time in series [1] is 12.1 min; in series [3], 8.57 min. On to `CC(C)Cc1ccc(C(C)C(=O)O)cc1` (stereo not drawn) [Ibuprofen], for which the results for the LC retention time in series [2] and in series [3] were 14.1 min and 10.3 min, respectively. With `CC(C)(c1ccccc1)c1ccc(O)cc1` [4-Cumylphenol], the LC retention time in series [1] is 15.7 min; in series [3] it was 11.1 min. Turning to `CC(C)(c1ccc(O)cc1)c1ccc(O)cc1` [Bisphenol A], the values for the LC retention time in series [2] and in series [3] were 18.3 min and 10.3 min, respectively. Turning to `Cc1cc(O)ccc1Cl` [p-Chlorocresol], the LC retention time was 13 min in series [1] and 8.57 min in series [3]. The matching figures for `Oc1ccc(Cl)cc1Cc1ccccc1` [Chlorophene]: 15.9 min and 11.2 min. For `N#Cc1cc(Br)c(O)c(Br)c1` [Bromoxynil], the LC retention time in series [3] was 8.68 min. The same measure, in the same setting: the result for `Cc1cc(Cl)ccc1OC(C)C(=O)O` (stereo not drawn) [Mecoprop] reads 8.57 min.

For `CC(O)(CS(=O)(=O)c1ccc(F)cc1)C(=O)Nc1ccc(C#N)c(C(F)(F)F)c1` (stereo not drawn) [Bicalutamide], the LC retention time in series [3] was 10.7 min.

Turning to `Cc1ccc(C(C)C)c(O)c1` [Thymol], the LC retention time was 14.7 min in series [1] and 10.6 min in series [3].

Take `Cc1cccc(C)c1N(Cn1cccn1)C(=O)CS(=O)(=O)O` [Metazachlor ESA]: in series [3], the LC retention time is 7.83 min. As to `CCCc1cc(=O)[nH]c(=S)[nH]1` [6-Propyl-2-thiouracil], the figures for the LC retention time in series [2] and in series [3] were 7.69 min and 8.14 min, respectively. On to `O=c1[nH]c(Cl)c(Cl)cc1Cl` [356-Trichloro-2-pyridinol], for which the LC retention time in series [3] was 9.23 min.

Regarding `CC(C)(Oc1ccc(Cl)cc1)C(=O)O` [Clofibric acid], the LC retention time in series [3] was 8.57 min. Same read-out and setting: next, `Cc1cccc(Nc2ccccc2C(=O)O)c1C` [Mefenamic acid]: 10.6 min. The same measure, in the same setting: next, `O=S(=O)(O)CCC(F)(F)C(F)(F)C(F)(F)C(F)(F)C(F)(F)C(F)(F)F` [6-2fluorotelomer sulfonic acid]: 8.97 min; `O=C(O)Cc1ccc(S(=O)(=O)O)cc1` [(4-Sulfophenyl)acetic acid]: 1.82 min.

Regarding `CCCCc1nc(Cl)c(CO)n1Cc1ccc(-c2ccccc2-c2nn[nH]n2)cc1` [Losartan], the LC retention time in series [3] was 9.49 min.

Regarding `O=C(c1ccc(OCCN2CCCCC2)cc1)c1c(-c2ccc(O)cc2)sc2cc(O)ccc12` [Raloxifene], the LC retention time in series [3] is 16.2 min. Same read-out and setting: the result for `Oc1cccc2n[nH]nc12` [4-Hydroxybenzotriazole] reads 7 min; that for `COc1c(C)c2c(c(O)c1CC=C(C)CCC(=O)O)C(=O)OC2` [Mycophenolic acid], 10.3 min; that for `S=c1nc[nH]c2nc[nH]c12` [6-Mercaptopurine], 3.32 min.

As to `O=S(=O)(O)c1nc2ccccc2s1` [2-Benzothiazolesulfonic acid], the LC retention time in series [3] is 6.31 min. Regarding `Oc1ccc(Cl)cc1Cl` [24-Dichlorophenol], the LC retention time in series [3] is 8.49 min. Still for that read-out and setting: next, `COCCN(C(=O)C(=O)O)c1c(C)cccc1C` [Dimethachlor OA]: 7.5 min. Regarding `O=c1[nH]cc(F)c(=O)[nH]1` [5-Fluorouracil], the LC retention time in series [2] is 7.72 min; in series [3], 2.09 min. For `NC(=O)c1ccccc1C(=O)O` [Phthalamic acid], the LC retention time in series [3] was 2.24 min. Consider `Oc1ccc(Cc2ccc(O)cc2)cc1` [Bisphenol F], for which the results for the LC retention time in series [1] and in series [3] were 11.9 min and 9.94 min, respectively. On to `Oc1cc(Cl)ccc1Oc1ccc(Cl)cc1Cl` [Triclosan], for which the LC retention time in series [3] was 11.5 min.
